The target of the first series is HDAC8 WT (Homo sapiens, UniProt Q9BY41). Nature of the series: Dilution/dialysis reversibility experiment. The class given is biochemical. To be noted: 2000-fold dilution by overnight dialysis.
For the compound `C#Cc1ccc[n+](C)c1` [B6+], the “reversibility of covalent binding” value is “irreversible”.

A further series concerns GSH (glutathione). Nature of the series: physchem. To be noted: PBS buffer with 5 mM glutathione (GSH), pH 7.4.
Experimental: The AUC (area under the curve) values were determined via integration of HPLC or MS chromatograms and then corrected with the internal standard. The fragments’ AUC values were subjected to ordinary least-squares (OLS) linear regression, and to compute the important parameters (kinetic rate constant and half-life time), an Excel sheet was applied. The data are expressed as means of duplicate determinations. The kinetic rate constant for the degradation and corrected GSH reactivity were calculated as follows. The reaction half-life for pseudo-first-order reactions (t1/2) is ln 2/k, where k is the reaction rate. In the case of competing reactions (reaction with GSH and degradation), the apparent reaction rate is kapp = kdeg + kGSH. When half-lives are measured experimentally, t1/2(app) = ln 2/(kapp) = ln 2/(kdeg + kGSH). In our case, the corrected kdeg and kapp (regarding blank and GSH-containing samples, respectively) can be calculated by linear regression of the measured kinetic data points. The corrected kGSH is calculated as kapp – kdeg, and finally, the half-life is determined using the equation t1/2 = ln 2/k.
As for `Clc1ncc[nH]1` [H1], the half-life at 250 μM is over 48 h.

The compound `Brc1ncc[nH]1` [H2] displayed a half-life at 250 μM of over 48 h.

The compound `Ic1ncc[nH]1` [H3] showed a half-life at 250 μM of 0.16 h.

`Clc1c[nH]cn1` [J1]: the half-life at 250 μM was over 48 h.

The compound `Brc1c[nH]cn1` [J2] yielded a half-life at 250 μM of over 48 h.

Compound `Ic1c[nH]cn1` [J3] had a half-life at 250 μM of over 48 h.

In the case of `Brc1ccn[nH]1` [K2], the half-life at 250 μM was over 48 h.

Take `Ic1ccn[nH]1` [K3]: the half-life at 250 μM is over 48 h.

`Clc1cn[nH]c1` [L1] yielded a half-life at 250 μM of over 48 h.

Turning to `Brc1cn[nH]c1` [L2], the half-life at 250 μM is over 48 h.

`Ic1cn[nH]c1` [L3] gave a half-life at 250 μM of over 48 h.

`Ic1ncco1` [N3] showed a half-life at 250 μM of 0.23 h.

Consider `Brc1cncs1` [Q2], for which the half-life at 250 μM is over 48 h.

`Brc1nccs1` [R2] registered a half-life at 250 μM of over 48 h.

Still in this series, the particulars now being: buffer, pH 7.4.
The compound `N#Cc1ccccn1` [A4] showed a half-life at 250 μM of over 48 h.

The compound `Cn1cc[n+](C)c1C#N` [H4+] yielded a half-life at 250 μM of over 48 h.

The next series has as its system SMC3 acetylation. Nature of the series: Western blot (immunoblot) in OCI-AML3 cells. The class given is cell-based. Particulars: 72 h treatment. Here is the method:
Cells (2 ×10^6) were seeded in 2 mL of medium in a six-well plate (Greiner) and treated with the desired concentration of the compounds. […] Protein concentrations were determined by the Bradford protein assay. Thirty micrograms of cell lysates per treatment was fractionated on sodium dodecyl sulfate–polyacrylamide gels and transferred to nitrocellulose membranes (Cytiva).
A general note: A western blot detects proteins with antibodies after separation by electrophoresis.
As for `C#Cc1ccc[n+](C)c1` [B6+], the “effect on HDAC8 levels” value was “not influencing HDAC8 levels”.

For a further series, the system named is THP-1 cells. Briefly: CellTiter-Blue cell viability assay. In kind it is cell-based. To be noted: Homo sapiens, 72 h, Figure 7A, read-out: cell viability IC50, THP-1. How it is done:
All cell lines were purchased from DSMZ (Braunschweig, Germany). The cell lines were regularly tested to exclude mycoplasma contamination and authenticated. […] Media were supplemented with 10% fetal calf serum (FCS), 10 units/mL penicillin, 10 μg/mL streptomycin, and 2 mM L-glutamine (all Gibco, Thermo Fisher Scientific).
To determine the IC50 of the selected compounds on the cell lines, the CellTiter-Blue cell viability assay (Promega) was performed. For this, cells were seeded in 96-well flat-bottom plates at a cell density of 10 000 cells/well. Cells were treated in triplicate with the compound of interest at various concentrations or with 10 μM Bortezomib (S1013; Selleck Chemicals, Houston, TX), as a positive control. […] Plates were measured using a GloMax plate reader (Promega), and IC50 values were determined by nonlinear regression using GraphPad Prism version 9.1.1 (GraphPad Software, Inc.), and the data are reported as mean values ± the standard error of the mean.
A general note: Alamar Blue is a resazurin reagent that responds to reducing activity.
Consider `C#Cc1cnccc1NC(=O)CC(=O)N1Cc2ccccc2C1` [compound 11, N-(3-Ethynylpyridin-4-yl)-3-(isoindolin-2-yl)-3-oxopropanamide], for which the IC50 is over 500 µM.

For a further series, the target named is T1, HDAC8 (Homo sapiens, UniProt Q9BY41).
T1 construct: one additional N-terminal residue 'H' (His) (N)
T1 sequence (Q9BY41 1-377): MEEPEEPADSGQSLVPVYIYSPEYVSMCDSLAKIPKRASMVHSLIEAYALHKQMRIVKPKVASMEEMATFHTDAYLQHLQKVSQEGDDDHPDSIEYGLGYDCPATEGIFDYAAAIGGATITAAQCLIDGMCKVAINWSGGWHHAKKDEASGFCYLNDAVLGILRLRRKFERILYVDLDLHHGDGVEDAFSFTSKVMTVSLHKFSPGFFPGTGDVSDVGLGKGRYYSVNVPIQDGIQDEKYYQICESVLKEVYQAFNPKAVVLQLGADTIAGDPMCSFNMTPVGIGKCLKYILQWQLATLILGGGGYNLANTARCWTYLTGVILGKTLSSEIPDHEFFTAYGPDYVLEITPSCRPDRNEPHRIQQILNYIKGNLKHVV
Briefly: Kinetic parameters of inactivation from time-dependent IC50. In kind it is biochemical. To be noted: HDAC8, inactivation constant. How it is done:
Time-dependent IC50 values were obtained using the previously described enzyme activity assay after varying preincubation times.
As to `C#Cc1ccc[n+](C)c1` [B6+], the Ki was 0.8 µM.

The test system of another series is HL60 cells. Briefly: CellTiter-Blue cell viability assay. In kind it is cell-based. Particulars: Homo sapiens, HL-60; 72 h, Figure 7A. Here is the method: All cell lines were purchased from DSMZ (Braunschweig, Germany). The cell lines were regularly tested to exclude mycoplasma contamination and authenticated. Cell lines were grown at 37 °C and 5% CO2 in RPMI 1640 medium (Gibco, Thermo Fisher Scientific). Media were supplemented with 10% fetal calf serum (FCS), 10 units/mL penicillin, 10 μg/mL streptomycin, and 2 mM L-glutamine (all Gibco, Thermo Fisher Scientific).
To determine the IC50 of the selected compounds on the cell lines, the CellTiter-Blue cell viability assay (Promega) was performed. For this, cells were seeded in 96-well flat-bottom plates at a cell density of 10 000 cells/well. Cells were treated in triplicate with the compound of interest at various concentrations or with 10 μM Bortezomib (S1013; Selleck Chemicals, Houston, TX), as a positive control. The cell viability of treated cell lines was measured using CellTiter-Blue after incubation for 72 h. Plates were measured using a GloMax plate reader (Promega), and IC50 values were determined by nonlinear regression using GraphPad Prism version 9.1.1 (GraphPad Software, Inc.), and the data are reported as mean values ± the standard error of the mean.
The compound `C#Cc1cnccc1NC(=O)CC(=O)N1Cc2ccccc2C1` [compound 11, N-(3-Ethynylpyridin-4-yl)-3-(isoindolin-2-yl)-3-oxopropanamide] showed an IC50 of over 500 µM.

Broadly, the half-life is the time in which the quantity being followed falls by half. Read a low half-life as fast loss. Usually IC50 stands for the concentration that inhibits the measured activity by half.

These data come from publication PMC10788917 (Journal of Medicinal Chemistry, 2023).
